The values below come from patent US7988972B2, “Immunoreactive peptides from Epstein-Barr virus” (Ortho-Clinical Diagnostics, Inc., priority 1993, dated 2011).

In assay [1] the test system is EA reactive antibody (IgG) in infectious mononucleosis (IM) sera. As to the kind of experiment: ELISA, EA peptides with EBV infectious mononucleosis sera. The assay is classed as binding, human. The following applies: EA positive EBV IM acute serum. As to the method: (§1) ELISA. The ELISA for measuring specific antibodies to p17, p50 or to the synthetic peptides was performed as previously described in detail (Luka et al., J. Immunol. Methods, 67:145-156, 1984). Aliquots of different antigen concentrations were diluted in 0.5M Na2CO3 buffer, pH 9.5, added to wells in polystyrene microtiter plates (Linbro) and the plates incubated overnight at 4° C. Following this incubation period, the plates were washed 5× with Tris-HCl, pH 7.4, containing 0.05% Tween 20, 50 mM NaCl and 100 mg per liter albumin (Sigma) and dried for 20 minutes at room temperature. The plates were screened with different anti-EA-R or EA-D antibody positive human sera and the monoclonal antibody to p17 or p50 to identify the optimal concentration of antigen to be used in the serological studies. Alkaline-phosphatase-labelled goat anti-human IgG (Sigma) or goat anti-mouse IgG (Sigma) was used as the indicator system.
(§2) For the testing of human sera for antibodies to native p17, p50 or to the synthetic peptides, sera were diluted 1:10 in ELISA buffer, added in 0.1 ml volumes to wells coated with optimal concentrations of antigen and the plates were incubated for 60 minutes at room temperature. After 4 washes with ELISA buffer, 100 μl of alkaline phosphatase-labelled goat anti-human IgG in ELISA buffer were added to each well and the plates were incubated at room temperature for 1 hour. Following four more washes in buffer, the enzyme reaction was performed by dissolving 1 mg per ml of Sigma alkaline phosphatase substrate in 1M diethanolamine buffer, pH 10.4, containing 1 mM MgCl2 and 0.1 mM ZnCl2, and 100 μl of the mixture was then added to each well. The reaction was allowed to proceed for 30 minutes at 37° C. and then the plates were screened directly with a microplate reader, TITERTEK MULTISKAN MC (Flow), at 420 nm. Readings above 0.1 which was 2× the background noted with antibody-negative sera were considered positive reactions.
When the entire 50.10 peptide was tested with 1M sera, 24/32 or 75% of the sera contained EA-D reactive antibody (IgG) (Table 4).
Serological reactivity of EA peptides p17.1 and p50.1 which contained additional amino acids on their amino and carboxy termini was tested on EBV IM acute sera which was EA positive. The ELISA results shown in Table 5 indicate that the additional amino acids improved reactivity for both EA peptides.
Immunofluorescence assays (IFA) were performed as described by Henle, et al. (Int. J. Cancer, 8:272-282, 1971). Western blot analysis was done by methods commonly used in the art (See for example, Coligan, et al., Current Protocols in Immunology, Wiley Interscience, 1991, Unit 12). Samples of EBV-infected cell lysates (P3HR-1) were tested with human whole antiserum from positive humans (Pearson, et al., Virology, 160:151-161, 1987). A comparison was made between EA serology by IFA, using the EA-D 50.1 peptide antisera, and ELISA serology using 50.1 peptide (see Example 2).

Assay [2] concerns peripheral blood lymphocytes (PBL). The assay can be described thus: Proliferation assay of peripheral blood lymphocytes (3H-thymidine incorporation). The assay is classed as cell-based, human. The following applies: for proliferation response: PBL from 3 anti-VCA-positive anti-EA-antibody-negative individuals; for 3H-thymidine Incorporation (cpm + S.D.) / S.I. (stimulation index): PBL from anti-VCA-positive, anti-EA-positive donor, 5 days. As to the method:
Proliferation assays. T-cell proliferation assays using the native p17 or p50 polypeptide or the synthetic peptides were performed as previously described in detail (Pothen et al., Int. J. Cancer, 49:656-660, 1991). Briefly, peripheral blood lymphocytes (PBLO from sero-positive donors were isolated on FICOLL-HYPAQUE gradients, washed and resuspended in RPMI 1640 media containing 10% heat-inactivated human A^+ serum from a sero-negative donor. Cells (1×10^5 per 0.1 ml) were then added to each well in 96-well, round-bottomed tissue culture plates (Costar, Cambridge, Mass.). The different antigen preparations were added to triplicate wells in 0.1 ml volumes and the plates were incubated at 37° C. for 5 days. ^3H-thymidine (5 Ci per mM) was added at a concentration of 1 μCi per well over the last 4 hours of culture. The cells were then harvested with a multichannel sample harvester and ^3H-thymidine incorporation was determined using a Beckman Model LS 3801 liquid scintillation counter. Stimulation indices for the test antigens were calculated by dividing the average counts per minute (CPMO for the test antigens by the average CPM of the medium control wells.
PBL from asymptomatic EBV-infected individuals were tested for response to any of the three p17 synthetic peptides (Table 1) by a proliferation assay using lymphocytes previously shown to proliferate in the presence of native p17 (Pothen et al., Int. J. Cancer, 49:656-660, 1991). Different concentrations of the synthetic peptides were incubated with the PBL for 5 days and then proliferation was assayed by the incorporation of ^3H-thymidine. The native p17 purified from activated P3HR-1 cells gave a S.I. of 15.8 in this experiment. […] Neither of the other synthetic peptides induced a proliferation response at the concentrations tested.
PBL from 3 anti-VCA-positive anti-EA-antibody-negative individuals were also examined in the proliferation assay with the three synthetic peptides. Again, all 3 PBL preparations responded to the highest concentrations of p17.1 with S.I.'s ranging from 3.5-11. Two of the preparations (FIG. 2A,C) also proliferated in the presence of lower concentrations of antigen with S.I.'s of 3 and 5 respectively. […] These experiments established that T-lymphocytes from EBV-infected individuals, irrespective of the presence of antibody to EA, recognized a dominant epitope on p17.
For orientation: Dividing cells build labelled thymidine or BrdU into new DNA.

Assay [3] relates to anti-EA antibodies in human sera. As to the kind of experiment: ELISA, serological reactivity of human sera with p17 synthetic peptides. The assay is classed as binding. The following applies: for share of anti-EA-positive sera that reacted: 87 anti-EA antibody-positive sera (titer>160), 2 μg peptide per well; for No. Positive/No. Tested / No. Positive/No. Tested (%): sera 1:10. As to the method: as §1, §2
Studies were designed to determine the serological reactivity with the p17 synthetic epitopes. For this purpose, 87 anti-EA antibody-positive sera (titer>160) were tested in the ELISA against optimal pre-determined concentrations (2 μg per well) of the p17 synthetic peptides. The sera were obtained from 28 patients with African Burkift's lymphoma (ABL) collected during the Ghanian Burkitt Tumor Project, and from 28 North American patients with intermediate large cell, or high grade non-Hodgkin's lymphoma (NANHL). The donors included both HIV-positive and HIV-negative individuals. In addition, sera from 31 North American nasopharyngeal carcinoma (NANPC) patients were examined in this study (Pearson, G. R., et al., Cancer, 51:260-268, 1983). To validate the EA specificity of the serological reactions, the results with these sera were compared with results with 23 VCA and EA antibody-negative sera and 30 VCA-antibody-positive, EA-antibody negative sera. In contrast to the T-cell proliferation results, all three synthetic peptides reacted with the EA antibody-positive sera to varying degrees with p17.1 again being the dominant epitope. Approximately 60% of the anti-EA-positive sera reacted with p17.1, 48% with p17.2 and 23% with p17.3.
Seventy-one percent of the sera from ABL patients and 93% of the sera from patients with NANHL reacted with p17.1 as opposed to 23% of the sera from North American patients with NPC.
(An ELISA detects its analyte on a solid surface through an enzyme-linked reagent.)

Setting [4] is: serum donors: Burkitt's lymphoma (African), EA titers >160.
Setting [5] is: serum donors: Lymphoma (total), EA titers >160.
The mark [6] stands for this setting: serum donors: Nasopharyngeal carcinoma (North American), EA titers >160.
Where [7] appears, read: serum donors: Non-Hodgkin's lymphoma (North American), EA titers >160.
The mark [8] stands for this setting: serum donors: Normal (VCA + EA-).
[9] abbreviates: serum donors: Normal (VCA − EA-).

Turning to “QNSETFTETWNRFITHTEHVD [17.1e, extension of p17.1 by the addition of several amino and carboxy-terminal amino acids]”, the “ELISA result, peptides with and without extensions” value amounted to 1.277 in assay [1] (sample no. 2241), 0.502 in assay [1] (sample no. 12498) and 1.257 in assay [1] (sample no. 12836).

With “GMLEASEGLDGWIHQ [p17.2, synthetic peptide from 17 Kd early antigen (EA-R) region of EBV]”, the proliferation response entry in assay [2] is on record as “None of these PBL preparations proliferated”. Besides, the “3H-thymidine Incorporation (cpm + S.D.)” value in assay [2] (3.12 μg/ml) stood at 157 ± 23 cpm; in assay [2] (12.5 μg/ml), 278 ± 58 cpm; in assay [2] (50 μg/ml), 277 ± 175 cpm. The “S.I. (stimulation index)” value in assay [2] (3.12 μg/ml) amounted to 1.1; in assay [2] (12.5 μg/ml) it was 1.9. In assay [3], the “share of anti-EA-positive sera that reacted” value is on record as 48%. Moreover, the “No. Positive/No. Tested” value in assay [3] (setting [4]) is recorded as 13/28; in assay [3] (setting [5]) it was 36/56; in assay [3] (setting [6]) it was 6/31; in assay [3] (setting [7]), 23/28; in assay [3] (setting [8]), 0/30; in assay [3] (setting [9]) it was 0/23. Further, the “No. Positive/No. Tested (%)” value in assay [3] (setting [4]) was found to be 46%; in assay [3] (setting [5]) it was 64%; in assay [3] (setting [6]) it was 19%; in assay [3] (setting [7]) it was 82%; in assay [3] (setting [8]), 0%.

As to “ARQKQKHPKKVKQAFNPLI [50.1e, extension of p50.10 by the addition of several amino and carboxy-terminal amino acids]”, the results for the “ELISA result, peptides with and without extensions” value in assay [1] (sample no. 2241), in assay [1] (sample no. 12498) and in assay [1] (sample no. 12836) were more than 2, 0.946 and 1.718, respectively.

On to “HQQGGWSTLIEDNIP [p17.3, synthetic peptide from 17 Kd early antigen (EA-R) region of EBV]”, for which, in assay [2], the proliferation response entry was “None of these PBL preparations proliferated”. For the same sequence, the “3H-thymidine Incorporation (cpm + S.D.)” value in assay [2] (3.12 μg/ml) stood at 194 ± 65 cpm; in assay [2] (12.5 μg/ml), 132 ± 3 cpm; in assay [2] (50 μg/ml), 190 ± 47 cpm. Also, the “S.I. (stimulation index)” value in assay [2] (3.12 μg/ml) worked out at 1.3; in assay [2] (12.5 μg/ml) it was 0. Further, the “share of anti-EA-positive sera that reacted” value in assay [3] is 23%. Also, the “No. Positive/No. Tested” value in assay [3] (setting [4]) is 9/28; in assay [3] (setting [5]), 16/56; in assay [3] (setting [6]), 4/31; in assay [3] (setting [7]), 7/28; in assay [3] (setting [8]), 0/30; in assay [3] (setting [9]) it was 0/23. In addition, the “No. Positive/No. Tested (%)” value in assay [3] (setting [4]) stood at 32%; in assay [3] (setting [5]) it was 29%; in assay [3] (setting [6]) it was 13%; in assay [3] (setting [7]), 25%; in assay [3] (setting [8]) it was 0%.
